Assays:
Format in all cases: cell-based, Human cytomegalovirus
AD169^R (IE1 expression) = assay: Western blot (immunoblot) of IE1 expression in AD169^R-infected cells
Procedure: The molecular weight markers and respective proteins are indicated.
FIGS. 12A and B are Western Blot assays showing that MBXC-4336 limits expression of IE1 in fibroblasts and epithelial cells. Total cell lysates from AD169^R-infected (MOI 0.2) NHDF (A) and ARPE-19 (B) cells pre-treated with DMSO, MBX-4336 (0, 1, 5, 10, or 20 μM), or heparin (50 μg/mL) collected at 48 hpi were subjected to Western blot analysis using a rabbit anti-IE-1 antibody (lanes 1-7) and an anti-GAPDH antibody (lanes 8-14) as a loading control. The molecular weight markers and respective proteins are indicated.
Total cell lysates from virus infected NHDF cells treated with compounds were created through SDS-lysis (10^4/100 uL of 1% SDS) of at least three rounds of heating at 95° C. for 3 min and vigorous agitation. The total cell lysates were resolved using an SDS-polyacrylamide gel (12.5%), transferred to a PVDF membrane using a semi-dry apparatus. The membrane was then incubated with 1% BSA/PBS for 1 hr at room temperature followed by incubation with anti-IE1 and anti-GAPDH. Finally, the respective secondary antibody conjugated with HRP was incubated with membrane followed by detection using ECL reagents (Millipore).
Next, inhibition of the expression of IE1 in AD169^R-infected cells treated with MBX-4992 was examined by immunoblot analysis (FIG. 4E). […] Collectively, these findings further indicate that MBX-4992 effectively prevents the expression of the immediate-early genes during a CMV infection.

AD169^R CMV virus [1] = assay: Plaque reduction (dissemination) assay, prophylactic treatment
Procedure: (§1) FIG. 8A-H are fluorescence images (A & B) and graphs showing that NAPA compounds MBX-4992 and MBXC-4336 work in both prophylactic and therapeutic settings to inhibit HCMV infection. ARPE-19 cells (A to D) and NHDF cells (E and F) treated with increasing concentrations (0, 1, 5, 20, and 50 μM) of MBX-4992, MBXC-4336, or ganciclovir (2.5 μM) were infected with AD169^R (MOI 0.025) and analyzed for viral plaques of >5,000 μm^2 (C and E) and >10,000 μm^2 (D and F) based on GFP fluorescence. The representative images of plaques from AD169^R-infected ARPE-19 cells treated MBX-4992, MBXC-4336, ganciclovir are shown (A and B). MBX-4992, MBXC-4336 (G and H), and ganciclovir treatment at 48 hpi of AD169^R-infected ARPE-19 cells (MOI 0.025) were analyzed for virus plaques >5,000 μm^2 and >10,000 μm^2 at 10 dpi. The normalized plaque number was designated to be 100 based on plaques from DMSO treated cells. Statistical tests were performed using ordinary one-way ANOVA with multiple comparisons to DMSO treated cells as a control and a Dunnett's post-test; *, p<0.05; **, p<0.01; ***, p<0.001; ****, p<0.0001.
For the prophylactic treatment analysis, the plaque assay was performed on ARPE-19 and NHDF cells (4×10^4) in a 24-well plate. The cells were pretreated for 1 hour with either MBX-4992 or MBXC-4336 (1-50 μM), DMSO, or ganciclovir (2.5 μM) and followed by virus infection with AD169^R. Following a 2-hour incubation at 37° C., the inoculum was removed and cells were overlaid with 1% low melt sea agarose. Upon solidification of the agarose, MBX-4992, MBXC-4336, DMSO, or ganciclovir in media was added at the indicated concentration. The drugs were replaced every 3 days. The cells were examined using Brightfield and GFP fluorescence to quantify the number and size of virus plaques using a Celigo Cytometer at 10 dpi.
To address whether NAPA compounds can limit virus dissemination in epithelial cells, we analyzed the inhibitory properties of MBX-4992 and MBXC-4336 using a plaque reduction assay by designating a cluster of virus infected cells as a virus plaque (Parsons et al., Antivir. Res., 193:105124 (2021)) The results are shown in FIG. 8A-H.
To evaluate the prophylactic function of the NAPA compounds, ARPE-19 cells and NHDF cells treated with DMSO, MBX-4992, MBXC-4336 (0-50 μM), or ganciclovir (2.5 μM) were infected with AD169^R CMV virus and analyzed for virus plaques at 10 dpi based on GFP fluorescence (FIG. 8A-F). A cluster of virus infected cells was designated a viral plaque based on an average cluster area of 5,000 μm^2 or 10,000 μm^2 (FIG. 8A-B) using a Celigo cytometer.

AD169^R CMV virus [2] = assay: Plaque reduction assay, therapeutic treatment at 48 hpi; conditions: Human betaherpesvirus 5, AD169, ARPE-19, read-out: IC50 of plaque reduction (>5,000 μm^2 and >10,000 μm^2)
Procedure: as §1
For therapeutic treatment, ARPE-19 cells (4×10^4) were plated in a 24-well plate. […] The cells were examined using brightfield and YFP fluorescence to quantify the number and plaques using the Celigo Cytometer at 14. […]

[3] = Human betaherpesvirus 5, AD169, ARPE-19, read-out: IC50 of virus plaque reduction
[4] = Human betaherpesvirus 5, AD169, Fibroblast, read-out: IC50 of virus plaque reduction

Structure (SMILES)	IE1 expression by immunoblot (AD169^R (IE1 expression); NHDF cells, 24 hpi, MBX-4992 1-10 μM, ganciclovir 5 μM, convallotoxin 0.01 μM)	IC50 (AD169^R CMV virus [1]; [3])	IC50 (AD169^R CMV virus [1]; [4])	IC50 (AD169^R CMV virus [2])	IE1 expression by immunoblot (AD169^R (IE1 expression); NHDF and ARPE-19 cells, 48 hpi (FIG. 12))
Cc1nc(Nc2ccc(NC(=O)c3ccco3)cc2)cc(N2CCCC2)n1 [MBX-4992]	concentration dependent decrease in IE1 expression	6.5 µM	12 µM	~9 µM	–
Cc1nc(Nc2cccc(NC(=O)c3ccco3)c2)cc(N2CCCCC2)n1 [MBXC-4336]	–	1.7 µM	4 µM	~9 µM	effectiveness of MBXC-4336 was validated
